# Measurements as given in US20240101602A1, “ANTIMICROBIAL PEPTIDES AND METHOD OF PREVENTING OR TREATING INFECTION BY USING THE SAME” (priority 2020, published 2024).
# Read-outs that look alike come from different tables or passages of the source. Residues, ends and D or L forms follow the SMILES beside them. *: point of attachment. Myristoyl = CCCCCCCCCCCCCC(=O)*
# Columns and labels:
# [1] = system: Staphylococcus aureus BCRC 10777
# [2] = system: Staphylococcus epidermidis ATCC 14990
# [3] = system: Acinetobacter baumannii ATCC 17978
# [4] = system: Cgl FST02; type: cell-based, Colletotricum gloeosporioides; details: Cgl FST02; optimal minimal medium, crude peptides (Table 9)
# Method: (§1) The experiments were conducted in an optimal minimal medium for each pathogen. The media and growth conditions were described in Tables 2 and 3. MIC and MBC values were determined following the procedures described above. […] Fifty microliters of serially diluted peptides (2-fold the final concentration) were added in a 96-well polystyrene plate with 50 μL of the fungal spore suspension. […] The plates were incubated at an optimal temperature without shaking. […] MFC was determined as the lowest peptide concentration at which no fungal growth was observed.
# [5] = system: bacteria, fungal spores, and fungal mycelia; type: cell-based; details: SYTOX Green, crude peptides, room temperature in dark for 2 h
# [6] = system: Ralstonia solanacearum strain Pss190; details: Rs Pss190; optimal minimal medium, crude peptides (Table 9)
# [7] = system: Pseudomonas syringae pv. tomato strain DC3000
# [8] = system: Xanthomonas oryzae pv. oryzae strain Xoo28; details: Xoo Xoo28; Table 7
# [9] = system: Botrytis cinerea; type: cell-based; details: Bc; optimal minimal medium, crude peptides (Table 9)
# Method: as §1
# [10] = system: Pectobacterium carotovorum subsp. carotovorum; type: cell-based
# Method: (§2) The effect of peptide length on the antimicrobial activity was investigated by deciding the minimal inhibitory concentration (MIC) and minimal bactericidal concentration (MBC) for each peptide against the pathogen with the media and growth conditions of phytopathogenic bacteria and E. coli as described in Table 1. Single bacterial colony grown on an optimal rich agar medium was picked, and each grew in 3 mL of the same rich liquid medium for 4 to 6 h. For experiments carried out in the rich medium, the bacterial broth culture was then diluted in the same medium to give a final concentration of OD600=0.08, and then further diluted 100 folds in the same medium. For experiments carried out in the minimal medium, the bacterial cells were collected from the bacterial liquid culture by centrifugation, re-suspended in an optimal minimal medium to give a final concentration of OD600=0.08, and then further diluted 100 folds in the same minimal medium. Fifty microliters of serially diluted peptides (2-fold the final concentration) were added in a 96-well polystyrene plate with 50 μL of the bacterial culture. […] The plates were incubated at an optimal temperature without shaking. […] MBC was determined as the lowest peptide concentration at which no colonies formed. The experiments were conducted in an optimal minimal medium for each pathogen. The media and growth conditions were described in Tables 2 and 3. MIC and MBC values were determined following the procedures described above. […] Fifty microliters of serially diluted peptides (2-fold the final concentration) were added in a 96-well polystyrene plate with 50 μL of the fungal spore suspension.
# [11] = system: Erwinia chrysanthemi; type: cell-based
# Method: as §2
# [12] = system: Klebsiella pneumonia NTUH-K2044
# [13] = system: Agrobacterium tumefaciens strain Atu C58C1
# [14] = system: Pseudomonas syringae pv. syringae strain B728a; details: Pss B728a; Table 7
# [15] = system: Ralstonia solanacearum strain Pss4; details: Rs Pss4; optimal minimal medium, crude peptides (Table 9)
# [16] = system: Eco DH5α; assay: MIC and MBC by serial dilution in 96-well plate; type: cell-based, Escherichia coli
# Method: (§3) The effect of peptide length on the antimicrobial activity was investigated by deciding the minimal inhibitory concentration (MIC) and minimal bactericidal concentration (MBC) for each peptide against the pathogen with the media and growth conditions of phytopathogenic bacteria and E. coli as described in Table 1. Single bacterial colony grown on an optimal rich agar medium was picked, and each grew in 3 mL of the same rich liquid medium for 4 to 6 h.
# (§4) For experiments carried out in the rich medium, the bacterial broth culture was then diluted in the same medium to give a final concentration of OD600=0.08, and then further diluted 100 folds in the same medium.
# (§5) For experiments carried out in the minimal medium, the bacterial cells were collected from the bacterial liquid culture by centrifugation, re-suspended in an optimal minimal medium to give a final concentration of OD600=0.08, and then further diluted 100 folds in the same minimal medium.
# (§6) Fifty microliters of serially diluted peptides (2-fold the final concentration) were added in a 96-well polystyrene plate with 50 μL of the bacterial culture. The final concentrations of peptides were 0, 2, 4, 8, 16 and 32 μg/mL. The plates were incubated at an optimal temperature without shaking.
# (§7) MBC was determined as the lowest peptide concentration at which no colonies formed.
# [17] = system: Xanthomonas euvesicatoria strain Xvt28; assay: MIC and MBC by serial dilution in 96-well plate; type: cell-based; details: Xev Xvt28; Table 7
# Method: as §3, §4, §5, §6, §7
# [18] = system: Xanthomonas campestris pv. campestris strain Xcc17; assay: MIC and MBC by serial dilution in 96-well plate; type: cell-based; details: Xcc Xcc17; Table 7
# Method: as §3, §4, §5, §6, §7
# [19] = system: Escherichia coli strain DH5a; details: 24 h
# [20] = system: Xanthomonas euvesicatoria strain Xvt28; assay: IC50 of bacterial growth (OD600) in rich liquid medium; type: cell-based; details: Xev Xvt28, 24 h, purified peptides
# Method: (§8) To measure the antimicrobial activity, single colony grown on an optimal rich agar medium for each bacterium was picked and grew in 3 mL of the same rich liquid medium for 4 to 6 h. The bacterial culture was then diluted in the same medium to give a final concentration of OD600=0.08 and then further diluted […] in the same medium. In each well of a 96-well polystyrene plate, 90 μL of the diluted culture was mixed with 10 μL of the peptide to give a peptide concentration of 0, 2, 10, and 20 μg/mL (final cell concentration is 5×10^5 CFU/mL). OD600 was measured after incubation at an optimal temperature for 24 h. IC50 was determined as the lowest peptide concentration inhibiting 50% of bacterial growth.
# [21] = system: Xanthomonas campestris pv. campestris strain Xcc17; assay: as above; type: cell-based; details: Xcc Xcc17, 24 h, purified peptides
# Method: as §8
# [22] = system: Candida albicans SC5314; details: Candida albicans SC5314; 48 h at 35° C., 0.125 to 64 μg/mL (Table 5)
# [23] = system: Xanthomonas oryzae pv. oryzae strain Xoo28; details: Xoo Xoo28; rich medium, 24 h, purified peptides
# [24] = system: Agrobacterium tumefaciens strain Atu C58C1; details: rich medium, 24 h, purified peptides
# [25] = Circular dichroism spectroscopy, secondary structure deconvolution
# [26] = Eco DH5α, rich medium, purified peptides
molecule,measurement,setting,value
CCCCCCCCCCCCCC(=O)N[C@@H](Cc1c[nH]c2ccccc12)C(=O)N[C@@H](CCCCN)C(=O)N[C@@H](CCCCN)C(=O)N[C@H](C(=O)N[C@@H](CCCCN)C(=O)N[C@@H](CCCCN)C(=O)N[C@@H](CC(C)C)C(=O)N[C@H](C(=O)N[C@@H](CCCCN)C(=O)N[C@@H](CCCCN)C(=O)N[C@@H](CC(C)C)C(N)=O)C(C)C)C(C)C [pepD3(V)M] (Myristoyl-WKKVKKLVKKL-NH2),MBC,[1],16 µg/mL
same,MIC,[1],16 µg/mL
same,MBC,[2],16 µg/mL
same,MIC,[2],16 µg/mL
same,MBC,[3],16 µg/mL
CCCCCCCCCCCCCC(=O)N[C@@H](Cc1c[nH]c2ccccc12)C(=O)N[C@@H](CCCCN)C(=O)N[C@@H](CCCCN)C(=O)N[C@H](C(=O)N[C@@H](CCCCN)C(=O)N[C@@H](CCCCN)C(=O)N[C@H](C(=O)N[C@H](C(=O)N[C@@H](CCCCN)C(=O)N[C@@H](CCCCN)C(=O)N[C@H](C(=O)N[C@@H](CCCCN)C(=O)N[C@@H](CCCCN)C(=O)N[C@H](C(N)=O)[C@@H](C)CC)[C@@H](C)CC)[C@@H](C)CC)[C@@H](C)CC)[C@@H](C)CC [pepI2M] (Myristoyl-WKKIKKIIKKIKKI-NH2),MBC,[3],32 µg/mL
CCCCCCCCCCCCCC(=O)N[C@@H](Cc1c[nH]c2ccccc12)C(=O)N[C@@H](CCCCN)C(=O)N[C@@H](CCCCN)C(=O)N[C@H](C(=O)N[C@@H](CCCCN)C(=O)N[C@@H](CCCCN)C(=O)N[C@H](C(=O)N[C@H](C(=O)N[C@@H](CCCCN)C(=O)N[C@@H](CCCCN)C(=O)N[C@H](C(=O)N[C@@H](CCCCN)C(=O)N[C@@H](CCCCN)C(=O)N[C@H](C(N)=O)C(C)C)C(C)C)C(C)C)C(C)C)C(C)C [pepV2M] (Myristoyl-WKKVKKVVKKVKKV-NH2),MBC,[1],16 µg/mL
same,MIC,[1],8 µg/mL
same,MBC,[2],16 µg/mL
same,MIC,[2],16 µg/mL
same,MBC,[3],16 µg/mL
Ac-WKKLKKLLKKLKKL-NH2 [pepD2],MBC/MFC,[4],— (“—” indicates no antimicrobial activity being detected at the highest peptide concentration (32 μg/mL) tested in this study.)
same,MIC,[4],— (“—” indicates no antimicrobial activity being detected at the highest peptide concentration (32 μg/mL) tested in this study.)
same,MBC,[1],16 µg/mL
same,MIC,[1],16 µg/mL
same,MBC,[2],32 µg/mL
same,MIC,[2],16 µg/mL
same,"membranolytic effect on the cell walls of bacteria, fungal spores, and fungal mycelia",[5],significant membranolytic effect
same,MBC/MFC,[6],— (“—” indicates no antimicrobial activity being detected at the highest peptide concentration (32 μg/mL) tested in this study.)
same,MIC,[6],— (“—” indicates no antimicrobial activity being detected at the highest peptide concentration (32 μg/mL) tested in this study.)
same,MBC,[7],8.8 µg/mL
same,MIC,[7],4.8 µg/mL
same,MBC,[8],6.0 µg/mL
same,MIC,[8],5.0 µg/mL
same,MBC/MFC,[9],— (“—” indicates no antimicrobial activity being detected at the highest peptide concentration (32 μg/mL) tested in this study.)
same,MIC,[9],— (“—” indicates no antimicrobial activity being detected at the highest peptide concentration (32 μg/mL) tested in this study.)
same,MBC,[10],18.8 µg/mL
same,MBC/MFC,[10],8.0 µg/mL
same,MBC,"[10]; Pcc, Table 13",6.7. μg/mL
same,MBC,[11],32.0 µg/mL
same,MBC/MFC,[11],21.3 µg/mL
same,MBC,[12],16 µg/mL
same,MIC,[12],16 µg/mL
same,MBC,[13],2.2 µg/mL
same,MIC,[13],1.6 µg/mL
same,MBC,[14],14.7 µg/mL
same,MIC,[14],6.0 µg/mL
same,MBC/MFC,[15],— (“—” indicates no antimicrobial activity being detected at the highest peptide concentration (32 μg/mL) tested in this study.)
same,MIC,[15],— (“—” indicates no antimicrobial activity being detected at the highest peptide concentration (32 μg/mL) tested in this study.)
same,MBC,[16]; Table 7,7.0 µg/mL
same,MIC,[16]; Table 7,4.3 µg/mL
same,MBC,[16]; Table 13,8.0 µg/mL
same,MIC,[16]; Table 13,8.0 µg/mL
same,MBC,[17],3.5 µg/mL
same,MIC,[17],3.0 µg/mL
same,MBC,[18],1.0 µg/mL
same,MIC,[18],1.0 µg/mL
Ac-WKLKLKLKLKLKLKLKLK-NH2 [pepE],IC50,[19]; DH5a,10.0 µg/mL
same,IC50,[20],2.0 µg/mL
same,IC50,[21],4.0 µg/mL
same,MIC,[22],— (“—” indicates no antimicrobial activity being detected at the highest peptide concentration (64 μg/mL) tested.)
same,IC50,[23],7.3 µg/mL
same,IC50,[24],20.0 µg/mL
Ac-WKLLKKLLKKLKKLLKKL-NH2 [pepC],IC50,[19]; [26],10.0 µg/mL
same,IC50,[20],8.0 µg/mL
same,IC50,[21],10.0 µg/mL
same,MIC,[22],32.0 µg/mL
same,IC50,[23],12.5 µg/mL
same,IC50,[24],12.5 µg/mL
Ac-WKLLKKLLKLLKKLLKLL-NH2 [pepB],IC50,[19]; [26],— (“—” indicates no antimicrobial activity being detected at the highest peptide concentration (20 μg/mL) tested in this study.)
same,α-helix formation,[25]; 10% TFE,90%
same,α-helix content,"[25]; dissolved in water, structural deconvolution of CD spectra",about 25%
same,IC50,[20],16.7 µg/mL
same,IC50,[21],— (“—” indicates no antimicrobial activity being detected at the highest peptide concentration (20 μg/mL) tested in this study.)
same,MIC,[22],— (“—” indicates no antimicrobial activity being detected at the highest peptide concentration (64 μg/mL) tested.)
same,IC50,[23],— (“—” indicates no antimicrobial activity being detected at the highest peptide concentration (20 μg/mL) tested in this study.)
same,IC50,[24],— (“—” indicates no antimicrobial activity being detected at the highest peptide concentration (20 μg/mL) tested in this study.)
